Data as given in the supplement of paper PMC10307832.

How the values were obtained:
Experiment in all cases: relative viability (nuclei count vs DMSO), 5 days (fraction); higher = more cells survive
NCI-H1793 = conditions: first compound 8 µM
Outline: (§1)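 Relative viability divides the nuclei count in treated wells by that in vehicle wells. Lung cancer cell lines were seeded in 1536-well plates, dosed by pin tool the next day, and fixed and stained after 5 days in one step with final 0.05% Triton X-100, 1% formaldehyde and 1 ug/ml Hoechst. Dosing was a single drug or a fixed anchor-drug dose plus five library-drug doses (not always all listed) in √10 steps, and values are medians of duplicate plates imaged at 4×.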

NCI-H1993 = tested on: NCI-H1993
Outline: as §1

NCI-H2009 = tested on: NCI-H2009
Outline: as §1

NCI-H2170 = tested on: NCI-H2170
Outline: as §1

NCI-H2228 = tested on: NCI-H2228
Outline: as §1

NCI-H2347 = tested on: NCI-H2347
Outline: as §1

NCI-H358 = tested on: NCI-H358
Outline: as §1

NCI-H647 = tested on: NCI-H647
Outline: as §1

NCI-H838 = tested on: NCI-H838
Outline: as §1

PC-14 = tested on: PC-14
Outline: as §1

SK-MES-1 = tested on: SK-MES-1
Outline: as §1

UMC-11 = tested on: UMC-11
Outline: as §1

## C=C1C(=O)O[C@@H](CCCCCCCC)[C@@H]1C(=O)O [C-75] + CS(=O)(=O)CCNCc1ccc(-c2ccc3ncnc(Nc4ccc(OCc5cccc(F)c5)c(Cl)c4)c3c2)o1 [Lapatinib] (partner 2 µM)
NCI-H1793
  relative viability: 0.713
NCI-H1993; first compound 0.08 µM
  relative viability: 0.796
NCI-H1993; first compound 0.253 µM
  relative viability: 0.825
NCI-H1993; first compound 0.8 µM
  relative viability: 0.807
NCI-H1993; first compound 2.53 µM
  relative viability: 0.763
NCI-H1993; first compound 8 µM
  relative viability: 0.667
NCI-H2009; first compound 0.08 µM
  relative viability: 0.984
NCI-H2009; first compound 0.253 µM
  relative viability: 0.88
NCI-H2009; first compound 0.8 µM
  relative viability: 0.901
NCI-H2009; first compound 2.53 µM
  relative viability: 0.939
NCI-H2009; first compound 8 µM
  relative viability: 0.762
NCI-H2170; first compound 0.08 µM
  relative viability: 0.269
NCI-H2170; first compound 0.253 µM
  relative viability: 0.276
NCI-H2170; first compound 0.8 µM
  relative viability: 0.255
NCI-H2170; first compound 2.53 µM
  relative viability: 0.216
NCI-H2170; first compound 8 µM
  relative viability: 0.276
NCI-H2228; first compound 0.08 µM
  relative viability: 1.11
NCI-H2228; first compound 0.253 µM
  relative viability: 1.19
NCI-H2228; first compound 0.8 µM
  relative viability: 1.1
NCI-H2228; first compound 2.53 µM
  relative viability: 0.903
NCI-H2228; first compound 8 µM
  relative viability: 1.03
NCI-H2347; first compound 0.08 µM
  relative viability: 0.862
NCI-H2347; first compound 0.253 µM
  relative viability: 0.94
NCI-H2347; first compound 0.8 µM
  relative viability: 0.965
NCI-H2347; first compound 2.53 µM
  relative viability: 0.828
NCI-H2347; first compound 8 µM
  relative viability: 1.02
NCI-H358; first compound 0.08 µM
  relative viability: 0.588
NCI-H358; first compound 0.253 µM
  relative viability: 0.434
NCI-H358; first compound 0.8 µM
  relative viability: 0.383
NCI-H358; first compound 2.53 µM
  relative viability: 0.458
NCI-H358; first compound 8 µM
  relative viability: 0.599
NCI-H647; first compound 0.08 µM
  relative viability: 0.896
NCI-H647; first compound 0.253 µM
  relative viability: 1.38
NCI-H647; first compound 2.53 µM
  relative viability: 0.791
NCI-H647; first compound 8 µM
  relative viability: 0.584
NCI-H838; first compound 0.08 µM
  relative viability: 1.01
NCI-H838; first compound 0.253 µM
  relative viability: 0.726
NCI-H838; first compound 0.8 µM
  relative viability: 0.856
NCI-H838; first compound 2.53 µM
  relative viability: 0.803
NCI-H838; first compound 8 µM
  relative viability: 0.876
PC-14; first compound 0.08 µM
  relative viability: 0.316
PC-14; first compound 0.253 µM
  relative viability: 0.259
PC-14; first compound 0.8 µM
  relative viability: 0.328
PC-14; first compound 2.53 µM
  relative viability: 0.243
PC-14; first compound 8 µM
  relative viability: 0.343
SK-MES-1; first compound 0.08 µM
  relative viability: 0.442
SK-MES-1; first compound 0.253 µM
  relative viability: 0.441
SK-MES-1; first compound 0.8 µM
  relative viability: 0.397
SK-MES-1; first compound 8 µM
  relative viability: 0.429
UMC-11; first compound 0.08 µM
  relative viability: 1.01
UMC-11; first compound 0.253 µM
  relative viability: 1.08
UMC-11; first compound 0.8 µM
  relative viability: 0.764
UMC-11; first compound 2.53 µM
  relative viability: 0.795
UMC-11; first compound 8 µM
  relative viability: 0.655
